Laboratory results published in publication PMC5320487, “Intrinsic Peroxidase-like Activity of Ficin” (Scientific Reports, 2017).

Test system: Ficin
Assay: absorbance at […] nm, steady-state kinetics, Michaelis-Menten fit
Format: biochemical
Conditions: peroxidase-like activity; 0.80 mM H2O2, 20 mM phosphate buffer pH 5.0, 35 °C; ping-pong

Compound: Cc1cc(-c2cc(C)c(N)c(C)c2)cc(C)c1N [TMB]
- Km: 0.19 ± 0.012 mM
